Experimental data taken from patent US20160207930A1 (LEO PHARMA A/S, priority 2013, published 2016).

Tests used:
NK1 Receptor = target: T1, NK1 Receptor (Homo sapiens, UniProt P25103); experiment: NK1 receptor mediated intracellular [Ca2+] mobilization in U251 MG cells using FLIPR; assay type: cell-based; conditions: antagonism of Substance P (EC80), Fluo-4, read-out: NK1R mediated intracellular [Ca^2+] mobilization IC 50
T1 construct: Measurement of NK1 Receptor Mediated Intracellular [Ca^2+]; Mobilization in U251 MG Cells Using FLIPR; endogenous in cells; host or cells: U251 MG cells
In short: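 Fluo-4-loaded U251 MG cells preincubated with compound (0.5% DMSO final), checked 5 min for agonism, then 10 min at 37 °C before Substance P at EC80. Peak fluorescence change on FLIPR, normalized to 100 nM Aprepitant maximal response; IC50 by four-parameter logistic fit, reported as pIC50.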

[1] = Hepatic intrinsic clearance following incubation in human liver microsomes; assay type: in vitro ADME; conditions: 0.5 μM test compound, NADPH, 0-30 min, scaled to g liver
In short: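 Compound incubated at 37° C with microsomes diluted to 0.55 mg/mL protein in 50 mM potassium phosphate pH 7.4 plus NADPH regenerating system; sampled 0–30 min and analysed by LC-MS/MS. Clint from ln(% parent remaining) slope, scaled to mL/min/g liver; Eh derived assuming 25.7 g/kg liver, 20.7 mL/min/kg blood flow.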

T1 sequence (P25103 whole entry): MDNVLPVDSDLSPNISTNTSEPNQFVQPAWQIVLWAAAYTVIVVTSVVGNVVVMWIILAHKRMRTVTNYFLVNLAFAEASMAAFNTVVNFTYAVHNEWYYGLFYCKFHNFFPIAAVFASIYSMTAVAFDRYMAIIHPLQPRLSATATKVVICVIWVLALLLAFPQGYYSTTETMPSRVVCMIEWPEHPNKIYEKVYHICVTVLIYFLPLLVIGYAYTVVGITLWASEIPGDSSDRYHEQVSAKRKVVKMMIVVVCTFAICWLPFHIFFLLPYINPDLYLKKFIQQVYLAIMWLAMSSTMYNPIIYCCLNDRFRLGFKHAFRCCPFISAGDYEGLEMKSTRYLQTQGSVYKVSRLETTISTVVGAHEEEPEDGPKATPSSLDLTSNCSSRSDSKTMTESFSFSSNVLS

Row | Compound | IC50 (NK1 Receptor) | Human in vitro Clint [1]
1 | CCc1cc([C@@H](C)N(C)C(=O)N2CCN3C(=O)CC[C@H]3[C@@H]2c2ccsc2C)cc(C(F)(F)F)c1 [Compound 56, (1S,8aS)—N—((R)-1-(3-ethyl-5-(trifluoromethyl)phenyl)ethyl)-N-methyl-1-(2-methylthiophen-3-yl)-6-oxohexahydropyrrolo[1,2-a]pyrazine-2(1H)-carboxamide] | 1.51 nM | >200 mL/min/g
2 | CCc1cc([C@@H](C)N(C)C(=O)N2CCN3C(=O)CC[C@H]3[C@@H]2c2cscc2C)cc(C(F)(F)F)c1 [Compound 49, (1S,8aS)—N—((R)-1-(3-ethyl-5-(trifluoromethyl)phenyl)ethyl)-N-methyl-1-(4-methylthiophen-3-yl)-6-oxohexahydropyrrolo[1,2-a]pyrazine-2(1H)-carboxamide] | 0.999 nM | >200 mL/min/g
3 | CC(C)c1cc([C@@H](C)N(C)C(=O)N2CCN3C(=O)CC[C@H]3[C@@H]2c2cccc3c2CCC3)cc(C(F)(F)F)c1 [Compound 81, (1S,8aS)-1-(2,3-dihydro-1H-inden-4-yl)-N—((R)-1-(3-isopropyl-5-(trifluoromethyl)phenyl)ethyl)-N-methyl-6-oxohexahydropyrrolo[1,2-a]pyrazine-2(1H)-carboxamide] | 3.5 nM | >200 mL/min/g
4 | Cc1ccc(C2C3CC(CCO)(CCO)C(=O)N3CCN2C(=O)N(C)[C@H](C)c2cc(C(F)(F)F)cc(C(F)(F)F)c2)c(C)c1 (single isomer, unassigned) [Compound 6] | 1.59 nM | >200 mL/min/g
5 | Cc1cccc([C@H]2[C@@H]3CCC(=O)N3CCN2C(=O)N(C)[C@H](C)c2cc(C(C)C)cc(C(F)(F)F)c2)c1C [Compound 42] | 0.306 nM | >200 mL/min/g

Now those with a lower IC50 (NK1 Receptor), led by results:

Row | IC50 (NK1 Receptor) | Human in vitro Clint [1] | Compound
6 | 0.118 nM | 157 mL/min/g | Cc1ccc(C)c([C@H]2[C@@H]3CC(CCO)(CCO)C(=O)N3CCN2C(=O)N(C)[C@H](C)c2cc(C(C)C)cc(C(F)(F)F)c2)c1 [Compound 38, (1S,8aS)-1-(2,5-dimethylphenyl)-7,7-bis(2-hydroxyethyl)-N—((R)-1-(3-isopropyl-5-(trifluoromethyl)phenyl)ethyl)-N-methyl-6-oxohexahydropyrrolo[1,2-a]pyrazine-2(1H)-carboxamide]
7 | 0.08 nM | >200 mL/min/g | CCc1cc([C@@H](C)N(C)C(=O)N2CCN3C(=O)C(CCO)(CCO)C[C@H]3[C@@H]2c2ccc(F)cc2C)cc(C(F)(F)F)c1 [Compound 24, (1S,8aS)—N—((R)-1-(3-ethyl-5-(trifluoromethyl)phenyl)ethyl)-1-(4-fluoro-2-methylphenyl)-7,7-bis(2-hydroxyethyl)-N-methyl-6-oxohexahydropyrrolo[1,2-a]pyrazine-2(1H)-carboxamide]
